From paper PMC10145360, “Antiplatelet Aggregation Properties of Cirsilineol: A Novel Inhibitor of Blood Coagulation Factor Xa” (Pharmaceuticals, 2023)

Test system: PRP
Assay: FXa-induced platelet aggregation
Assay type: cell-based, human
Conditions: FXa 52 µg/mL; PRP preincubated 5 min
Method: Figure 5 Effects of CSL on the catalytic activity and production of FXa. […] Plots show the average values of five independent measurements. (B) HUVECs pre-incubated with the indicated concentrations of CSL for 10 min were stimulated with TNF-α (10 ng/mL) for 6 h and incubated with FX (175 nM) and FVIIa (10 nM) with/without anti-tissue factor antibody (25 µg/mL). The production of FXa was characterized as described in the Methods section. (C) PRP was preincubated for 5 min with different concentrations of CSL, Riva, or the vehicle. Platelet aggregation was initiated with FXa (52 µg/mL), and the platelet aggregation was recorded using an aggregometer. Data are shown as mean values ± SD of five independent experiments. * p < 0.05 vs. TNF-α alone (B) or FXa (C). D = 0.2% DMSO, used as the vehicle control.
CSL dissolved in DMSO was incubated with human PRP for a specified time (1, 3, 5, or 10 min). Next, PRP was activated by the addition of collagen (1 μg/mL), ADP (10 μM), U46619 (6 μM), or thrombin (3 U/mL), and the amount of platelet aggregation was measured using an aggregometer (Chronolog, Havertown, PA, USA).

COc1cc(-c2cc(=O)c3c(O)c(OC)c(OC)cc3o2)ccc1O [CSL, 4,5-dihydroxy-3,6,7-trimethoxyflavone]
platelet aggregation brought on by FXa: dramatically reduced
